Data as given in ChEMBL document CHEMBL3875219, “Hetero-Diels-Alder approach to Bis(indolyl)methanes” (Bioorg Med Chem, 2017).

Tests used:
THP-1 = assay: Selectivity index, ratio of IC50 for mouse S17 cells to IC50 for human THP1 cells; format: functional
U-937 = assay: Selectivity index, ratio of IC50 for mouse S17 cells to IC50 for human U937 cells; format: functional
[1] = (§1) Cytotoxicity against mouse S17 cells assessed as reduction in cell viability after 72 hrs by MTT assay; format: toxicity, cell-based; settings: mouse, S17 cells
[2] = Cytotoxicity against mouse EL4 cells assessed as reduction in cell viability after 72 hrs by MTT assay; format: functional, cell-based; settings: EL4, 72 h
[3] = Cytotoxicity against human U937 cells assessed as reduction in cell viability after 72 hrs by MTT assay; format: functional, cell-based; settings: U-937, 72 h
EL4 = assay: Selectivity index, ratio of IC50 for mouse S17 cells to IC50 for mouse EL4 cells; format: functional
[4] = Cytotoxicity against human THP1 cells assessed as reduction in cell viability after 72 hrs by MTT assay; format: functional, cell-based; settings: THP-1, 72 h
[5] = Cytotoxicity against human U937 cells assessed as cell viability at 100 uM after 72 hrs by MTT assay relative to control; format: functional; settings: U-937, 72 h, read-out: Activity
Mus musculus = species: Mus musculus; assay: as §1; format: toxicity, cell-based; settings: s17
[6] = Cytotoxicity against mouse S17 cells assessed as cell viability at 100 uM after 72 hrs by MTT assay relative to control; format: toxicity; settings: read-out: Activity

| SMILES | Ratio IC50 (THP-1) | Ratio IC50 (U-937) | IC50 at 72 h [1] | IC50 [2] | IC50 [3] | Ratio IC50 (EL4) | IC50 [4] | viability at 100 µM [5] | IC50 (Mus musculus) | viability at 72 h, 100 µM [6] |
| --- | --- | --- | --- | --- | --- | --- | --- | --- | --- | --- |
| C/C(=N/NS(=O)(=O)c1ccc(C)cc1)C(c1c[nH]c2ccccc12)c1c[nH]c2ccccc12 | 1.06 | 1.09 | 25 µM | 18.9 µM | 22.9 µM | 1.32 | 23.5 µM |  |  |  |
| COc1ccc2[nH]cc(C(/C(=N\O)c3ccc(Br)cc3)c3c[nH]c4ccc(OC)cc34)c2c1 | <1 | <1 | 17.7 µM | 9.29 µM | 18.1 µM | 1.91 | 22.6 µM |  |  |  |
| C/C(=N/NC(=O)OC(C)(C)C)C(c1cn(C)c2ccccc12)c1cn(C)c2ccccc12 |  |  |  | 9.99 µM | 14.2 µM |  | 25.3 µM |  |  |  |
| C/C(=N/NC(=O)OC(C)(C)C)C(c1cn(Cc2ccccc2)c2ccccc12)c1cn(Cc2ccccc2)c2ccccc12 | <1 | <1 | 7.65 µM | 5.56 µM |  | 1.38 | 38.8 µM | 66.6% |  |  |
| Cc1ccc2[nH]cc(C(/C(=N\O)c3ccc(Br)cc3)c3c[nH]c4ccc(C)cc34)c2c1 | 1.81 | 1.17 | 11.5 µM | 3.23 µM | 9.79 µM | 3.56 | 6.34 µM |  |  |  |
| C/C(=N/NC(=O)OC(C)(C)C)C(c1c[nH]c2ccc(O)cc12)c1c[nH]c2ccc(O)cc12 | 3.5 | <1 |  | 15.4 µM | 157 µM | 6.49 | 28.6 µM |  | Non-Toxic | 48.4% |
| C/C(=N/Nc1ccc([N+](=O)[O-])cc1[N+](=O)[O-])C(c1c[nH]c2ccccc12)c1c[nH]c2ccccc12 | <1 | <1 | 7.92 µM | 5.45 µM | 13.3 µM | 1.45 | 14 µM |  |  |  |
| O/N=C(/c1ccc(Br)cc1)C(c1c[nH]c2ccc(Br)cc12)c1c[nH]c2ccc(Br)cc12 |  |  |  | 7.65 µM | 18.6 µM |  | 12.2 µM |  |  |  |
| O/N=C(/c1ccc(Br)cc1)C(c1c[nH]c2ccc(O)cc12)c1c[nH]c2ccc(O)cc12 | 1.41 | 1.71 | 21.9 µM | 15.6 µM | 12.8 µM | 1.4 | 15.5 µM |  |  |  |
| C/C(=N/NC(=O)OC(C)(C)C)C(c1c[nH]c2ccc(Br)cc12)c1c[nH]c2ccc(Br)cc12 | 1.14 | 1.46 | 41.3 µM | 22.5 µM | 28.3 µM | 1.84 | 36.2 µM |  |  |  |
| COc1cc([C@@H]2c3cc4c(cc3[C@@H](O[C@@H]3O[C@@H]5CO[C@@H](C)O[C@H]5[C@H](O)[C@H]3O)[C@H]3COC(=O)[C@H]23)OCO4)cc(OC)c1O [ETOPOSIDE] |  |  | 10.4 µM | 4.9 µM | 1.1 µM |  | 1.82 µM |  |  |  |
| C/C(=N/NC(=O)OC(C)(C)C)C(c1c[nH]c2ccccc12)c1c[nH]c2ccccc12 | 1.67 | 2 | 50 µM | 15.3 µM | 25 µM | 3.27 | 30 µM |  |  |  |
